Laboratory results: patent US7709441B2, “Control of function of intracellular Ca ion” (Japan Science and Technology Agency, priority 2003, dated 2010)
Like-named read-outs stand apart in the source and are kept apart here.

Columns and labels:
Purkinje cells = conditions: intact Purkinje cells; read-out: EC50 of IP3 for IP3-induced Ca2+ release; cited from earlier work
IP3R1 [1] = conditions: other tissues or isolated IP3R1; read-out: EC50 of IP3 for IP3-induced Ca2+ release; cited from earlier work
IP3R1 [2] = target: T1, IP3R1 (Mus musculus, UniProt P11881); assay: [3H]IP3 binding assay with purified IP3R1 in the presence or absence of CARP (Scatchard plot); conditions: for Kd: mean of three separate experiments, read-out: dissociation constant (Kd±S.D.) of IP3 binding to IP3R1
Experimental: The inventors conducted a binding assay using purified IP3R1, to evaluate effect of CARP on IP3-binding affinity to IP3R1. Purified IP3R1 was incubated with various concentration of [^3H] IP3 in the presence or absence of purified recombinant CARP, and analyzed by a Scatchard plot.
IP3 binding to IP3R1 by IP3 in the presence (▪ in FIG. 6) and in the absence (● in FIG. 6) of CARP. In FIG. 6, the horizontal axis represents an amount of binding IP3 (pmol/mg), and the vertical axis represents an amount of binding IP3 divided by an amount of non-binding IP3 (pmol/mg/nM).
[^3H]IP3 binding to IP3R1 was assayed by polyethylene glycol precipitation in the presence or absence of CARP in accordance with the method as reported previously (Maeda, N., Niinobe, M., et al, (1990), EMBO J.,9,61-67). 0.5 μg of purified IP3R1 was incubated with or without 10 μg of purified His-CARP in 50 μL of a solution containing 50 mM Tris-HCl, pH 8.0, 1 mM EDTA, 1 mM 2-mercaptoethanol, 9.6 nM [^3H] IP3 and different concentration of IP3, for 10 min at 4° C. Nonspecific binding was measured in the presence of 10 μM IP3.
Target sequence in this assay (P11881 whole entry): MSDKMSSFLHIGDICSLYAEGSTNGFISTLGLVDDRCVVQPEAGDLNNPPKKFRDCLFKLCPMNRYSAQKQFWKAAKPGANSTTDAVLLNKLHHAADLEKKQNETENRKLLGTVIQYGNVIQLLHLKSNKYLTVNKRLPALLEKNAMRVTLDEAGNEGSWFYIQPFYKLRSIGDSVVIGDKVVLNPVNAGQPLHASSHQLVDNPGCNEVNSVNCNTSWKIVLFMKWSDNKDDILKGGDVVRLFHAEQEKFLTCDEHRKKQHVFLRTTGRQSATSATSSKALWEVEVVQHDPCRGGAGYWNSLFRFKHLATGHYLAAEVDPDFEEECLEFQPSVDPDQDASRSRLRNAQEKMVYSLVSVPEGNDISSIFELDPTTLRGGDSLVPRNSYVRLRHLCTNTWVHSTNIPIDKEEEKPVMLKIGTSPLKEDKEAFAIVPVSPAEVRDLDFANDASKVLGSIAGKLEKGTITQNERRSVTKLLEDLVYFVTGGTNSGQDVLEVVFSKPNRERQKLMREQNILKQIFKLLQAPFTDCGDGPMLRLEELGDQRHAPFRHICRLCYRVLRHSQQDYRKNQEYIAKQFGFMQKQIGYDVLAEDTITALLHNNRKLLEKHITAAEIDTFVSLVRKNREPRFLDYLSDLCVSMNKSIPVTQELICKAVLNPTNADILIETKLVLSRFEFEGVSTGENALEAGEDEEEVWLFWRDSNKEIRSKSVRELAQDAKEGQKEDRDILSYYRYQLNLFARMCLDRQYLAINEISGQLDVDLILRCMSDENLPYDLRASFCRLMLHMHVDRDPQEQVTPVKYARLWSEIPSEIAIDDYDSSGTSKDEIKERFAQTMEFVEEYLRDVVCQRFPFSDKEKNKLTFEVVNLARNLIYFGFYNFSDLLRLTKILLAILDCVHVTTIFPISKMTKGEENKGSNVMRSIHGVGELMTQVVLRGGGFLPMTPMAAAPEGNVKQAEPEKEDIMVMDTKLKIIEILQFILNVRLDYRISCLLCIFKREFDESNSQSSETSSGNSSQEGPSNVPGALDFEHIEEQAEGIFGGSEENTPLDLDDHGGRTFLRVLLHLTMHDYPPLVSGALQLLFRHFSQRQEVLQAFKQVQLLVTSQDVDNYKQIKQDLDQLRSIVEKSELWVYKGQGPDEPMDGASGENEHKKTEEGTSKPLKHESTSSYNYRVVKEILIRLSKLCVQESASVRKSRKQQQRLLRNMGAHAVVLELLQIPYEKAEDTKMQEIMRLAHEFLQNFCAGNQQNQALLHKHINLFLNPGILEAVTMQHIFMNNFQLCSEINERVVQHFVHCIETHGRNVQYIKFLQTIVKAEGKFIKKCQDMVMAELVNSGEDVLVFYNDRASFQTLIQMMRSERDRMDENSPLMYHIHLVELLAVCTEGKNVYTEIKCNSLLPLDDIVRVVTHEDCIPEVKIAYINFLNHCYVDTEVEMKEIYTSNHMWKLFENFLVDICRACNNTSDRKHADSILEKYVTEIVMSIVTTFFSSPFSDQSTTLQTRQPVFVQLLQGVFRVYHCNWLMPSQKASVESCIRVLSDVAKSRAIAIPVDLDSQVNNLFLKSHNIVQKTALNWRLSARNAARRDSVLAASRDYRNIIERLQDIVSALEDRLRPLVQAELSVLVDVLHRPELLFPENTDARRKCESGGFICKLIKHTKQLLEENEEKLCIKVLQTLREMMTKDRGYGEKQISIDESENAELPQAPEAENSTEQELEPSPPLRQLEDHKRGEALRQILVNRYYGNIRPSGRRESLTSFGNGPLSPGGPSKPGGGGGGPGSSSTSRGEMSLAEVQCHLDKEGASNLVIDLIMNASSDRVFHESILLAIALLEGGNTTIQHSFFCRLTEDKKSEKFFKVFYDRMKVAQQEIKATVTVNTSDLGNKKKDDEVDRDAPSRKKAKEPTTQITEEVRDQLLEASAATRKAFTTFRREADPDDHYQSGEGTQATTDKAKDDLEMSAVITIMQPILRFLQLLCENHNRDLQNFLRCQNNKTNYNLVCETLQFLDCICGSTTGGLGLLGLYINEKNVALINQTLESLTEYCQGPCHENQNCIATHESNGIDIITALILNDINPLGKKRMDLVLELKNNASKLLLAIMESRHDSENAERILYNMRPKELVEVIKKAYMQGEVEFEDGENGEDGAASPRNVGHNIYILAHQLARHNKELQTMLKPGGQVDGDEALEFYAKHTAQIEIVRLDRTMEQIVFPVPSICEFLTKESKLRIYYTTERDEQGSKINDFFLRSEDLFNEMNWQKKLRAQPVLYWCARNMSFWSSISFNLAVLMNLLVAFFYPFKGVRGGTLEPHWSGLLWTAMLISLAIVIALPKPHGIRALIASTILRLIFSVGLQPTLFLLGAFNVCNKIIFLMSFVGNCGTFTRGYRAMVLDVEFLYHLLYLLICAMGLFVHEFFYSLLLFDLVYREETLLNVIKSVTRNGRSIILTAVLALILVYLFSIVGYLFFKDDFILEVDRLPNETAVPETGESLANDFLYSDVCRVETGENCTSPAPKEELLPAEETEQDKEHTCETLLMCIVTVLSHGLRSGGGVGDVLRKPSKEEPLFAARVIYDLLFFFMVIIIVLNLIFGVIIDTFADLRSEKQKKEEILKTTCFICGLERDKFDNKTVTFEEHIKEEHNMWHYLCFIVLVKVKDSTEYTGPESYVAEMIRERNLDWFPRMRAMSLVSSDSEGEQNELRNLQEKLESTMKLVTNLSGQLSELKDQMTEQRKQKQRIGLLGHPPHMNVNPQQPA

[3] = reported; cited from earlier work
[4] = target: T2, GST-EL (amino acids 1-2217 of mIP3R1) (Mus musculus, UniProt P11881); assay: Pull-down assay with GST-EL (soluble IP3R1), immunoblot with anti-CARP antibody; format: binding; conditions: mouse cerebellar cytosolic fraction; GST as control
T2 construct: (amino acids 1-2217 of mIP3R1) and has GST in its N terminus; made in house; host or cells: Sf9 cells (recombinant baculovirus)
Text: (§1) Next, the inventors of the present application examined the interaction between CARP and IP3R1 by means of a pull-down method in order to obtain further evidence for the interaction by biochemical methods. The inventors first developed expression system in Sf9 cells, and made IP3R1 soluble by removing the channel domain. The soluble IP3R1, designated GST-EL, covers both the ligand binding domain and modulatory domain (amino acids 1-2217 of mIP3R1) and has GST in its N terminus. Mouse cerebellar cytosolic fraction was incubated with GST-EL or GST, and binding of CARP to the recombinant proteins was analyzed by immunoblotting with anti-CARP antibody. The results are shown in photographs of FIG. 4 which are substituted for drawings.
Adult mouse cerebella were homogenized in 10 mM HEPES (pH 7.4), 320 mM Sucrose, 2 mM EDTA, 1 mM 2-mercaptoethanol, and protease inhibitors and the homogenate was centrifuged at 1,000×g for 10 min. The supernatant was centrifuged at 100,000×g for 60 min to obtain the cytosolic fraction (the supernatant) and the crude microsome (the pellet). The cytosolic fraction was added with 100 mM NaCl, and incubated with 20 μg of GST-EL or GST for 2 hours at 4° C. […] The eluted proteins were analyzed by Western blotting with anti-CARP antibody. […]

IP3R1 [5] = target: T1, IP3R1; assay: Pull-down assay with GST-CARP on detergent extract of mouse cerebellar microsome, immunoblot with anti-IP3R1 antibody; format: binding; design: The crude microsome was solubilized with 1% Triton X-100; from tissue; host or cells: adult mouse cerebellum, crude microsome solubilized with Triton X-100 (GST-CARP made in Escherichia coli); conditions: GST as control
Text: as §1
The crude microsome was solubilized with 1% Triton X-100, and dissolved in 50 mM HEPES (pH7.4), 2 mM EDTA, 1 mM 2-mercaptoethanol, and protease inhibitors for 30 min at 4° C., and centrifuged at 20,000×g for 30 min. The supernatants were processed for pull-down assay with 10 μg of GST-CARP or GST as described above, and bound proteins were subjected to immunoblot analysis with anti-IP3R1 antibody KM1112.

T2 sequence (P11881 1-2217, one chain of several): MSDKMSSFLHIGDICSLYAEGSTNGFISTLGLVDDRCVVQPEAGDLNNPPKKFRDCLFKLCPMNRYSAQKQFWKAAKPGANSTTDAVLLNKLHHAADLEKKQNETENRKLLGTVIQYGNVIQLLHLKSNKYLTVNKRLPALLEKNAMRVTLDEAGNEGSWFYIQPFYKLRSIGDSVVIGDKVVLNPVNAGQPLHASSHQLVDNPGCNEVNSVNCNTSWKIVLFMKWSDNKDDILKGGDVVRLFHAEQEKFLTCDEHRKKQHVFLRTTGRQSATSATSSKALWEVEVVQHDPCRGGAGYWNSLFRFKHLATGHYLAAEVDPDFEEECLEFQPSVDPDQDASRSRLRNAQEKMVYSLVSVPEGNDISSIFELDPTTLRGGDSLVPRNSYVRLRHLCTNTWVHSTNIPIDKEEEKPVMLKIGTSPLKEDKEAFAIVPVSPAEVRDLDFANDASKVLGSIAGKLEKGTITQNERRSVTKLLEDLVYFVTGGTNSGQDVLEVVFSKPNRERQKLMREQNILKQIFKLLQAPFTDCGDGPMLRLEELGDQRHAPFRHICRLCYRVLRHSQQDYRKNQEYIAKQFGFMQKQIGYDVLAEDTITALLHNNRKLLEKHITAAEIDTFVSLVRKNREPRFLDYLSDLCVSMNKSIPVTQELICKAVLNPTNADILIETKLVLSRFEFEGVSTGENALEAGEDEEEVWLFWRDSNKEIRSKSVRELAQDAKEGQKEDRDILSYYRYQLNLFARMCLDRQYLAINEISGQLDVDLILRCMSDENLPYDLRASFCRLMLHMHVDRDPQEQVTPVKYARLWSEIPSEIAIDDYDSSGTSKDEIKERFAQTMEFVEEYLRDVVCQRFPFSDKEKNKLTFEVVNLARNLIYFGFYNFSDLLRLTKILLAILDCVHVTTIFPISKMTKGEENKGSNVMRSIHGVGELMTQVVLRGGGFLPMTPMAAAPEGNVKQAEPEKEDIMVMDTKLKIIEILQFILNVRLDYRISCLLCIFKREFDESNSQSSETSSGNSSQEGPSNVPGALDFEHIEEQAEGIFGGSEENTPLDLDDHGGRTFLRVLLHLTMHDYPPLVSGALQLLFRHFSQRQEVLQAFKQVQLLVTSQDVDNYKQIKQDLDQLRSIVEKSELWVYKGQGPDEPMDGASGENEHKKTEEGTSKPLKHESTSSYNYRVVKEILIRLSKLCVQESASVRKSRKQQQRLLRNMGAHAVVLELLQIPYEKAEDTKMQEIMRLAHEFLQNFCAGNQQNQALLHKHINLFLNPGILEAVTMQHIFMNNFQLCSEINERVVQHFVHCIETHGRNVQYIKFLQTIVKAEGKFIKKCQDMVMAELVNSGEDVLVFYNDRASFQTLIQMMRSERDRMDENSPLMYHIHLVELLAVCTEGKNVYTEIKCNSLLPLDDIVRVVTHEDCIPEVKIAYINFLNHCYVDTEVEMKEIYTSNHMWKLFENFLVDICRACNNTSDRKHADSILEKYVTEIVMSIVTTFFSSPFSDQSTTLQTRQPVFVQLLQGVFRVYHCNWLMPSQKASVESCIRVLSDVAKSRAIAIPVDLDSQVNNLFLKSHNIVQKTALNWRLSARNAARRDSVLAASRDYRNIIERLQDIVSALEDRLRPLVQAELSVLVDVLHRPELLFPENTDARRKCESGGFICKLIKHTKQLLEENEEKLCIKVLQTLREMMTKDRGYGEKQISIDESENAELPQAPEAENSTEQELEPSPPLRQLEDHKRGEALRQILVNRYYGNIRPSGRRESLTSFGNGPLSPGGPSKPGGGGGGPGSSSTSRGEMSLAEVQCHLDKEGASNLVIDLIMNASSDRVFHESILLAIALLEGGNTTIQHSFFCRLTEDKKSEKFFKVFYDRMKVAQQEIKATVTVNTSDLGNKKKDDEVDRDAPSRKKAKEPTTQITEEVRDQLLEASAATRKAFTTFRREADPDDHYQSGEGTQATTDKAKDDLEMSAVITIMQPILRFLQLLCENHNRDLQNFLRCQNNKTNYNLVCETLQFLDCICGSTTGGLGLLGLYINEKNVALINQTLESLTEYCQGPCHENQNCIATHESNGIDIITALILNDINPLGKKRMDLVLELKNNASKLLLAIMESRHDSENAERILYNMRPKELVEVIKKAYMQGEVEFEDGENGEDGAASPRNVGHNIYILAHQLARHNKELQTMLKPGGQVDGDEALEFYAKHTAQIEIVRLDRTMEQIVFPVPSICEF

Molecule: O=P(O)(O)OC1C(O)C(O)C(OP(=O)(O)O)C(OP(=O)(O)O)C1O (stereo not shown) [IP3, inositol-1,4,5-triphosphate]
- EC50 (Purkinje cells): ≥ 10000 nM
- EC50 (IP3R1 [1]): 100 to 1000 nM
- Bmax value of IP3 binding to IP3R1 (IP3R1 [2]; in the absence of CARP): 1720 ± 234 pmol/mg
- Kd (IP3R1 [2]; in the absence of CARP): 18.2 ± 4.58 nM
- Bmax value of IP3 binding to IP3R1 (IP3R1 [2]; in the presence of CARP): 1630 ± 108 pmol/mg
- Kd (IP3R1 [2]; in the presence of CARP): 33.5 ± 2.07 nM

B1: CARP: mouse carbonic anhydrase-related protein, 291 amino acids, SEQ ID NO:2 (protein, listed as Mus musculus)
chain: MADLSFIEDAVAFPEKEEDEEEEEEEGVEWGYEEGVEWGLVFPDANGEYQSPINLNSREARYDPSLLDVRLSPNYVVCRDCEVTNDGHTIQVILKSKSVLSGGPLPGGQEFELYEVRFHWGRENQRGSEHTVNFKAFPMELHLIHWNSTLFGSIDEAVGKPHGIAIIALFVQIGKEHVGLKAVTEILQDIQYKGKSKTIPCFNPNTLLPDPLLRDYWVYEGSLTIPPCSEGVTWILFRYPLTISQMQIEEFRRLRTHVKGVELVEGCDGILGDNFRPTQPLSDRVIRAAFQ
- carbonic anhydrase activity [3]: no carbonic anhydrase activity
- binding of CARP to GST-EL in pull-down [4]: specifically binds to GST-EL, but not to GST alone
- effect of CARP on binding of IP3 to IP3R1 (IP3R1 [2]; 10 μg purified His-CARP, 0.5 μg purified IP3R1): inhibits binding of IP3 to IP3R1 not by antagonistic action but by reducing the affinity

B2: GST-CARP: GST-fusion recombinant full-length CARP expressed in Escherichia coli (protein)
chain: B1 chain
modifications: left off: a dimerising Fc or GST
notes: GST-fusion recombinant full-length CARP expressed in Escherichia coli
- binding of IP3R1 to GST-CARP in pull-down (IP3R1 [5]): IP3R1 interacted with GST-CARP but not with GST
